From ChEMBL document CHEMBL4334523, “Enzymatic Preparation of 2'-5',3'-5'-Cyclic Dinucleotides, Their Binding Properties to Stimulator of Interferon Genes Adaptor Protein, and Structure/Activity Correlations” (J Med Chem, 2019)

What was measured:
[1] = target: T1, Stimulator of interferon genes protein (Homo sapiens, UniProt Q86WV6); experiment: Activation of recombinant human wild-type STING expressed in 293T cells measured after 30 mins in presence of digitonin A by bright Glo-luciferase reporter gene assay; format: cell-based
T1 sequence (Q86WV6 whole entry): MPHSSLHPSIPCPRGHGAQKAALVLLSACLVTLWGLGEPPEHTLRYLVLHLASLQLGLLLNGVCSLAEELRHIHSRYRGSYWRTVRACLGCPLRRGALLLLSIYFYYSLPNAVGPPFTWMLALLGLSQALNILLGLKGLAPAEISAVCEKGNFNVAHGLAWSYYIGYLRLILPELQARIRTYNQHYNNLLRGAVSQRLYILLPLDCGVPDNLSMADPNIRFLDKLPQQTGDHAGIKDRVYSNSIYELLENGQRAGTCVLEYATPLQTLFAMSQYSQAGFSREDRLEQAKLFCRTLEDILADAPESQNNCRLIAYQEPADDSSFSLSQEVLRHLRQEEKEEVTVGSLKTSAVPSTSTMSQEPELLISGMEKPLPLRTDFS

[2] = Cytotoxicity against human PBMC-derived CD3-positive T cells assessed as effect on cell viability at 12.5 uM incubated for 16 hrs by Zombie-NIR staining-based flow cytometry
cells = conditions: Homo sapiens, HEK-293T, 0.5 h
Description: Activation of recombinant human STING haplotype R232H mutant expressed in 293T cells measured after 30 mins in presence of digitonin A by bright Glo-luciferase reporter gene assay

Monocyte = experiment: Cytotoxicity against human PBMC-derived monocytes assessed as CD3-negative CD14 positive monocyte viability at 12.5 uM incubated for 16 hrs by Zombie-NIR staining-based flow cytometry relative to control; format: functional
Homo sapiens = species: Homo sapiens; format: cell-based
[3] = target: Stimulator of interferon genes protein (Homo sapiens, UniProt Q86WV6, G230A/R293Q/R71H); experiment: Activation of recombinant human STING haplotype R71H/G230A/R293Q mutant expressed in 293T cells measured after 30 mins in presence of digitonin A by bright Glo-luciferase reporter gene assay; format: cell-based
Sequence of Stimulator of interferon genes protein (Homo sapiens, UniProt Q86WV6, G230A/R293Q/R71H) (Q86WV6 whole entry R71H/G230A/R293Q): as the sequence (Q86WV6 whole entry) above, with R71H, G230A, R293Q counted along it

[4] = target: T1, Stimulator of interferon genes protein
Description: Binding affinity to recombinant human wild-type STING assessed as change in melting temperature at 150 uM by SYPRO orange dye based differential scanning fluorimetric method

[5] = target: Stimulator of interferon genes protein (Homo sapiens, UniProt Q86WV6, G230A/R293Q); experiment: Activation of recombinant human STING haplotype G230A/R293Q mutant expressed in 293T cells measured after 30 mins in presence of digitonin A by bright Glo-luciferase reporter gene assay; format: cell-based
Sequence of Stimulator of interferon genes protein (Homo sapiens, UniProt Q86WV6, G230A/R293Q) (Q86WV6 whole entry G230A/R293Q): as the sequence (Q86WV6 whole entry) above, with G230A, R293Q counted along it

[6] = target: Stimulator of interferon genes protein (Homo sapiens, UniProt Q86WV6, R293Q); experiment: Activation of recombinant human STING haplotype R293Q mutant expressed in 293T cells measured after 30 mins in presence of digitonin A by bright Glo-luciferase reporter gene assay; format: cell-based
Sequence of Stimulator of interferon genes protein (Homo sapiens, UniProt Q86WV6, R293Q) (Q86WV6 whole entry R293Q): as the sequence (Q86WV6 whole entry) above, with R293Q counted along it

[7] = target: T1, Stimulator of interferon genes protein; experiment: Activation of recombinant human wild-type STING expressed in 293T cells incubated for 7 hrs in absence of digitonin A by bright Glo-luciferase reporter gene assay; format: cell-based

EC50 [1] [nM]	EC50 (cells) [nM]	EC50 [3] [nM]	ΔTm [4] [°C]	EC50 [5] [nM]	EC50 [6] [nM]	EC50 [7] [nM]	Compound	Activity [2]	Activity (Monocyte) [%]	max activation (Homo sapiens) [%]
10	2300	60	8.3	60	1230	13300	CSc1ncnc2c1ncn2[C@@H]1O[C@@H]2COP(=O)(O)O[C@@H]3[C@H](O)[C@@H](COP(=O)(O)O[C@H]2[C@H]1O)O[C@H]3n1cnc2c(=O)[nH]c(N)nc21	Non-Toxic	0.4	< 30
230	34200	310	3.9	210	5720	> 300000	Nc1nc2c(ncn2[C@@H]2O[C@@H]3COP(=O)(O)O[C@H]4[C@@H](O)[C@H](n5nnc6c(N)ncnc65)O[C@@H]4COP(=O)(O)O[C@@H]2[C@@H]3O)c(=O)[nH]1	Non-Toxic	2.3	< 30
40	3500	100	6.6	60	1100	40400	Nc1nc2c(ccn2[C@@H]2O[C@@H]3COP(=O)(O)O[C@H]4[C@@H](O)[C@H](n5cnc6c(N)ncnc65)O[C@@H]4COP(=O)(O)O[C@@H]2[C@@H]3O)c(=O)[nH]1	Non-Toxic	0.9	< 30
110	6000	250	2.8	50	3000	241000	Nc1nc2c([C@@H]3O[C@@H]4COP(=O)(O)O[C@H]5[C@@H](O)[C@H](n6cnc7c(N)ncnc76)O[C@@H]5COP(=O)(O)O[C@@H]3[C@@H]4O)scc2c(=O)[nH]1	Non-Toxic	0.9	< 30
200	6400	100	12.3	60	600	187000	Nc1nc2c(ncn2[C@@H]2O[C@@H]3COP(=O)(O)O[C@H]4[C@H](O)[C@H](n5cnc6c(N)nc(F)nc65)O[C@@H]4COP(=O)(O)O[C@@H]2[C@@H]3O)c(=O)[nH]1	Non-Toxic	3	< 30
20	1400	30	9.4	20	240	108000	Nc1nc2c(ncn2[C@@H]2O[C@@H]3COP(=O)(O)O[C@H]4[C@@H](N)[C@H](n5cnc6c(N)ncnc65)O[C@@H]4COP(=O)(O)O[C@@H]2[C@@H]3O)c(=O)[nH]1	Non-Toxic	3	< 30
20	900	40	9	40	780	40000	Cn1c(N)nc2c(ncn2[C@@H]2O[C@@H]3COP(=O)(O)O[C@H]4[C@@H](O)[C@H](n5cnc6c(N)ncnc65)O[C@@H]4COP(=O)(O)O[C@@H]2[C@@H]3O)c1=O	Non-Toxic	2	< 30

More lines, now with the values behind:

Compound	EC50 [1] [nM]	EC50 (cells) [nM]	EC50 [3] [nM]	ΔTm [4] [°C]	EC50 [5] [nM]	EC50 [6] [nM]	EC50 [7] [nM]	Activity [2]	Activity (Monocyte) [%]	max activation (Homo sapiens) [%]
Nc1nc(N)c2ncn([C@@H]3O[C@@H]4COP(=O)(O)O[C@@H]5[C@H](O)[C@@H](COP(=O)(O)O[C@H]4[C@H]3F)O[C@H]5n3cnc4c(=O)[nH]c(N)nc43)c2n1	20	170	40	14.4	30	130	27600	Non-Toxic	2.5	< 30
Nc1nc2c(ncn2[C@@H]2O[C@@H]3COP(=O)(O)O[C@H]4[C@@H](O)[C@H](n5cnc6c(=O)[nH]cnc65)O[C@@H]4COP(=O)(O)O[C@@H]2[C@@H]3O)c(=O)[nH]1	50	2100	300	8.8	140	2200	149000	Non-Toxic	17	< 30
Nc1nc2c(ncn2[C@@H]2O[C@@H]3COP(=O)(O)O[C@H]4[C@@H](O)[C@H](n5cnc6c(O)nc(O)nc65)O[C@@H]4COP(=O)(O)O[C@@H]2[C@@H]3O)c(=O)[nH]1	1800	20900	1700	2.4	2000	32800	> 300000	Non-Toxic	45	< 30
Nc1nc2c(ncn2[C@@H]2O[C@@H]3COP(=O)(O)O[C@H]4C[C@H](n5cnc6c(N)nc(F)nc65)O[C@@H]4COP(=O)(O)O[C@@H]2[C@@H]3F)c(=O)[nH]1	50	2000	100	10.7	170	700	> 300000	Non-Toxic	0.2	< 30
CNc1ncnc2c1ncn2[C@@H]1O[C@@H]2COP(=O)(O)O[C@@H]3[C@H](O)[C@@H](COP(=O)(O)O[C@H]2[C@H]1O)O[C@H]3n1cnc2c(=O)[nH]c(N)nc21	20	700	60	9	60	1200	63700	Non-Toxic	0.8	< 30
Nc1nc2c(ncn2[C@@H]2O[C@@H]3COP(=O)(O)O[C@H]4[C@@H](F)[C@H](n5cnc6c(N)nc(F)nc65)O[C@@H]4COP(=O)(O)O[C@@H]2[C@@H]3O)c(=O)[nH]1	20	70	80	14.7	30	80	11000	Non-Toxic	0.4	< 30
Nc1nc2c(ncn2[C@@H]2O[C@@H]3COP(=O)(O)O[C@H]4[C@@H](O)[C@H](n5cnc6c(=S)[nH]cnc65)O[C@@H]4COP(=O)(O)O[C@@H]2[C@@H]3O)c(=O)[nH]1	300	1700	200	7.3	150	8300	182000	Non-Toxic	10	< 30
Nc1nc2c(ncn2[C@@H]2O[C@@H]3COP(=O)(O)O[C@H]4C[C@H](n5cnc6c(N)nc(Cl)nc65)O[C@@H]4COP(=O)(O)O[C@@H]2[C@@H]3O)c(=O)[nH]1	70	4700	80	9.5	90	960	58200	Non-Toxic	0.1	< 30
NC(=O)c1ncn([C@@H]2O[C@@H]3COP(=O)(O)O[C@H]4[C@@H](O)[C@H](n5cnc6c(N)ncnc65)O[C@@H]4COP(=O)(O)O[C@@H]2[C@@H]3O)c1N	830	> 45000	400	0.6	420	47200	> 300000	Non-Toxic	87	< 30
Nc1nc2c(ncn2[C@@H]2O[C@@H]3COP(=O)(O)O[C@@H]4[C@H](O)[C@@H](COP(=O)(O)O[C@@H]2[C@@H]3O)O[C@H]4n2cnc3c(N)ncnc32)c(=O)[nH]1	30	210	20		30	170	39200	Non-Toxic	2.8	< 30
CSc1nc(N)nc2c1ncn2[C@@H]1O[C@@H]2COP(=O)(O)O[C@@H]3[C@H](O)[C@@H](COP(=O)(O)O[C@H]2[C@H]1O)O[C@H]3n1cnc2c(=O)[nH]c(N)nc21	300	27600	480	3.5	240	8500	> 300000	Non-Toxic	4.8	< 30
NC(=O)c1ncn([C@@H]2O[C@@H]3COP(=O)(O)O[C@@H]4[C@H](O)[C@@H](COP(=O)(O)O[C@H]3[C@H]2O)O[C@H]4n2cnc3c(=O)[nH]c(N)nc32)c1N	320	> 45000	210	1.7	210	45300	> 300000	Non-Toxic	83	< 30
Nc1ncc2ncn([C@@H]3O[C@@H]4COP(=O)(O)O[C@@H]5[C@H](O)[C@@H](COP(=O)(O)O[C@H]4[C@H]3O)O[C@H]5n3cnc4c(=O)[nH]c(N)nc43)c2n1	20	1600	40	9.2	40	700	53900	Non-Toxic	0.6	< 30
